Data on 8 compounds can be found in the supplement of paper PMC8967900.
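Also: ALL cell lines in 384-well plates, five doses spanning 10,000-fold, each plate scaled between vehicle and 100 µmol/L benzalkonium chloride controls, sDSS an adapted area-under-curve metric.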

The test system of the first experiment is MOLT-16. Kind of experiment: selective drug sensitivity score (sDSS, relative to normal bone marrow) (sDSS (score)); higher = more potent and effective on the cell line relative to normal bone marrow cells. To be noted: 72 h.
With `C[C@@H](Oc1ccc2[nH]nc(/C=C/c3cnn(CCO)c3)c2c1)c1c(Cl)cncc1Cl` (top concentration 1000 nM), the “selective drug sensitivity score” value was -2.04.
Same read-out and setting: for `Cc1cc(C(C)Nc2ccccc2)c2nc(N3CCOCC3)cc(=O)n2c1` (stereo not given) [TGX-221] (top concentration 10000 nM) the value was -1.34; for `Cc1nc(-c2cn3c(n2)-c2ccc(-c4cnn(C(C)(C)C(N)=O)c4)cc2OCC3)n(C(C)C)n1` [Taselisib] (top concentration 1000 nM), 2.8; for `O=C(Nc1cccc(Nc2ncc(Br)c(NCCc3cnc[nH]3)n2)c1)N1CCCC1` [BX-912] (top concentration 10000 nM), 9.06.
Same read-out and setting: in the case of `NS(=O)(=O)OC[C@@H]1C[C@@H](n2ccc3c(N[C@H]4CCc5ccccc54)ncnc32)C[C@@H]1O` [Pevonedistat] (top concentration 10000 nM) it was 16.7.
On the same count and under the same terms, for `N#Cc1ccc(COC[C@H]2O[C@@H](n3c(NCc4ccc(Cl)c(Cl)c4)nc4c(N)ncnc43)[C@H](O)[C@@H]2O)cc1` (top concentration 10000 nM) the value was 9.72; for `C=C1C[C@@H]2[C@H](CC[C@]3(C)C(=O)CC[C@@H]23)[C@@]2(C)C=CC(=O)C=C12` [Exemestane] (top concentration 10000 nM), -1.7.
As for `NCC(=O)Nc1ccc(-n2nc(C(F)(F)F)cc2-c2ccc3c(ccc4ccccc43)c2)cc1` (top concentration 25000 nM), the “selective drug sensitivity score” value was found to be 19.

The subject of a further experiment is TANOUE. Described as above. Particulars: 72 h.
Consider `C[C@@H](Oc1ccc2[nH]nc(/C=C/c3cnn(CCO)c3)c2c1)c1c(Cl)cncc1Cl` (top concentration 1000 nM), for which the “selective drug sensitivity score” value is -7.04.
Still for that read-out and setting: for `Cc1cc(C(C)Nc2ccccc2)c2nc(N3CCOCC3)cc(=O)n2c1` (stereo not given) [TGX-221] (top concentration 10000 nM) the value was -0.94; for `Cc1nc(-c2cn3c(n2)-c2ccc(-c4cnn(C(C)(C)C(N)=O)c4)cc2OCC3)n(C(C)C)n1` [Taselisib] (top concentration 1000 nM), -4.3.
On the same count and under the same terms, for `O=C(Nc1cccc(Nc2ncc(Br)c(NCCc3cnc[nH]3)n2)c1)N1CCCC1` [BX-912] (top concentration 10000 nM) the value was -7.04; for `NS(=O)(=O)OC[C@@H]1C[C@@H](n2ccc3c(N[C@H]4CCc5ccccc54)ncnc32)C[C@@H]1O` [Pevonedistat] (top concentration 10000 nM), -3.1; for `N#Cc1ccc(COC[C@H]2O[C@@H](n3c(NCc4ccc(Cl)c(Cl)c4)nc4c(N)ncnc43)[C@H](O)[C@@H]2O)cc1` (top concentration 10000 nM), 1.42.
Same read-out and setting: in the case of `C=C1C[C@@H]2[C@H](CC[C@]3(C)C(=O)CC[C@@H]23)[C@@]2(C)C=CC(=O)C=C12` [Exemestane] (top concentration 10000 nM) it was -0.7; in that of `NCC(=O)Nc1ccc(-n2nc(C(F)(F)F)cc2-c2ccc3c(ccc4ccccc43)c2)cc1` (top concentration 25000 nM), 4.7.

The subject of another experiment is COG-LL-355h. The description is as above. To be noted: 72 h.
For the compound `C[C@@H](Oc1ccc2[nH]nc(/C=C/c3cnn(CCO)c3)c2c1)c1c(Cl)cncc1Cl` (top concentration 1000 nM), the “selective drug sensitivity score” value was 0.36.
As for `Cc1cc(C(C)Nc2ccccc2)c2nc(N3CCOCC3)cc(=O)n2c1` (stereo not given) [TGX-221] (top concentration 10000 nM), the “selective drug sensitivity score” value was found to be 2.96.
Consider `Cc1nc(-c2cn3c(n2)-c2ccc(-c4cnn(C(C)(C)C(N)=O)c4)cc2OCC3)n(C(C)C)n1` [Taselisib] (top concentration 1000 nM), for which the “selective drug sensitivity score” value came out at 11.9.
As to `O=C(Nc1cccc(Nc2ncc(Br)c(NCCc3cnc[nH]3)n2)c1)N1CCCC1` [BX-912] (top concentration 10000 nM), the “selective drug sensitivity score” value stood at 1.36.
On the same count and under the same terms, in the case of `NS(=O)(=O)OC[C@@H]1C[C@@H](n2ccc3c(N[C@H]4CCc5ccccc54)ncnc32)C[C@@H]1O` [Pevonedistat] (top concentration 10000 nM) it was 6; in that of `N#Cc1ccc(COC[C@H]2O[C@@H](n3c(NCc4ccc(Cl)c(Cl)c4)nc4c(N)ncnc43)[C@H](O)[C@@H]2O)cc1` (top concentration 10000 nM), 2.22.
Turning to `C=C1C[C@@H]2[C@H](CC[C@]3(C)C(=O)CC[C@@H]23)[C@@]2(C)C=CC(=O)C=C12` [Exemestane] (top concentration 10000 nM), the “selective drug sensitivity score” value is 1.
Same read-out and setting: for `NCC(=O)Nc1ccc(-n2nc(C(F)(F)F)cc2-c2ccc3c(ccc4ccccc43)c2)cc1` (top concentration 25000 nM) the value was -0.2.

The subject of a further experiment is LC4-1. The description is as above. Particulars: 72 h.
Consider `C[C@@H](Oc1ccc2[nH]nc(/C=C/c3cnn(CCO)c3)c2c1)c1c(Cl)cncc1Cl` (top concentration 1000 nM), for which the “selective drug sensitivity score” value was 1.36.
Consider `Cc1cc(C(C)Nc2ccccc2)c2nc(N3CCOCC3)cc(=O)n2c1` (stereo not given) [TGX-221] (top concentration 10000 nM), for which the “selective drug sensitivity score” value was -1.64.
Same read-out and setting: for `Cc1nc(-c2cn3c(n2)-c2ccc(-c4cnn(C(C)(C)C(N)=O)c4)cc2OCC3)n(C(C)C)n1` [Taselisib] (top concentration 1000 nM) the value was -2.2; for `O=C(Nc1cccc(Nc2ncc(Br)c(NCCc3cnc[nH]3)n2)c1)N1CCCC1` [BX-912] (top concentration 10000 nM), 12.3; for `NS(=O)(=O)OC[C@@H]1C[C@@H](n2ccc3c(N[C@H]4CCc5ccccc54)ncnc32)C[C@@H]1O` [Pevonedistat] (top concentration 10000 nM), 10.
Turning to `N#Cc1ccc(COC[C@H]2O[C@@H](n3c(NCc4ccc(Cl)c(Cl)c4)nc4c(N)ncnc43)[C@H](O)[C@@H]2O)cc1` (top concentration 10000 nM), the “selective drug sensitivity score” value was 0.32.
Regarding `C=C1C[C@@H]2[C@H](CC[C@]3(C)C(=O)CC[C@@H]23)[C@@]2(C)C=CC(=O)C=C12` [Exemestane] (top concentration 10000 nM), the “selective drug sensitivity score” value was 3.6.
Consider `NCC(=O)Nc1ccc(-n2nc(C(F)(F)F)cc2-c2ccc3c(ccc4ccccc43)c2)cc1` (top concentration 25000 nM), for which the “selective drug sensitivity score” value was determined as 2.7.

In a further experiment the test system is DND-41. Described as above. Particulars: 72 h.
For the compound `C[C@@H](Oc1ccc2[nH]nc(/C=C/c3cnn(CCO)c3)c2c1)c1c(Cl)cncc1Cl` (top concentration 1000 nM), the “selective drug sensitivity score” value stood at 7.06.
For `Cc1cc(C(C)Nc2ccccc2)c2nc(N3CCOCC3)cc(=O)n2c1` (stereo not given) [TGX-221] (top concentration 10000 nM), the “selective drug sensitivity score” value was -1.64.
Same read-out and setting: for `Cc1nc(-c2cn3c(n2)-c2ccc(-c4cnn(C(C)(C)C(N)=O)c4)cc2OCC3)n(C(C)C)n1` [Taselisib] (top concentration 1000 nM) the value was -4.3.
Turning to `O=C(Nc1cccc(Nc2ncc(Br)c(NCCc3cnc[nH]3)n2)c1)N1CCCC1` [BX-912] (top concentration 10000 nM), the “selective drug sensitivity score” value was 2.56.
Turning to `NS(=O)(=O)OC[C@@H]1C[C@@H](n2ccc3c(N[C@H]4CCc5ccccc54)ncnc32)C[C@@H]1O` [Pevonedistat] (top concentration 10000 nM), the “selective drug sensitivity score” value came to 10.1.
For the compound `N#Cc1ccc(COC[C@H]2O[C@@H](n3c(NCc4ccc(Cl)c(Cl)c4)nc4c(N)ncnc43)[C@H](O)[C@@H]2O)cc1` (top concentration 10000 nM), the “selective drug sensitivity score” value was 8.82.
Take `C=C1C[C@@H]2[C@H](CC[C@]3(C)C(=O)CC[C@@H]23)[C@@]2(C)C=CC(=O)C=C12` [Exemestane] (top concentration 10000 nM): the “selective drug sensitivity score” value was -1.9.
On the same count and under the same terms, for `NCC(=O)Nc1ccc(-n2nc(C(F)(F)F)cc2-c2ccc3c(ccc4ccccc43)c2)cc1` (top concentration 25000 nM) the value was 7.5.
